Source: the supplement of paper PMC11451515

Experiments:
Conditions in all cases: 48 h
[1] = system: NOMO1; assay: cell viability relative to DMSO control; higher = less cytotoxic
How it was run: (§1)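 Cells were incubated for 48 h at 37°C before CellTiter-Glo One luminescence was read. The cells were NOMO1 or SEM (500 cells/well) or P12-Ichikawa (1000 cells/well) leukemia cells, adapted for at least four passages in each medium and seeded in 1536-well plates (5 μl). Dosing used library compounds in DMSO applied by pin over 11 threefold points, 47 μM to 0.79 nM. Viability is the per-plate percentage of DMSO wells, with cell-free wells as background.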

[2] = system: P12-Ichikawa; assay: as above
How it was run: as §1

[3] = system: SEM cells; assay: as above
How it was run: as §1

[4] = system: NOMO1; assay: AUC of viability dose-response curve (% viability x log10 dose units); higher = less sensitive
How it was run: (§2)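 Area under the curve was integrated by trapezoidal rule from a log-logistic fit of normalised viability, with curves exceeding full viability scaled and quality-control failures removed. The fit had four parameters over log10 doses. Viability came from CellTiter-Glo One luminescence, normalised per plate to DMSO and cell-free wells, after leukemia cells adapted to each medium (500 or 1000 cells/well, 1536-well plates) were exposed to library compounds in DMSO for 48 h at 37°C. The 11 threefold doses ran from 47 μM to 0.79 nM.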

[5] = system: P12-Ichikawa; assay: as above
How it was run: as §2

CN1\C(=C(\O)C2=C(C=CC=C2)[S+]1([O-])=O)C(=O)NC3=CC=CC=N3
cell viability [%]
Conditions	[1]	[2]	[3]
HPLM + 10% dialyzed FBS, 0.000781 µM	107	96.6	92.2
HPLM + 10% dialyzed FBS, 0.00234 µM	138	104	81.9
HPLM + 10% dialyzed FBS, 0.00702 µM	110	109	96.9
HPLM + 10% dialyzed FBS, 0.0211 µM	122	119	75
HPLM + 10% dialyzed FBS, 0.0632 µM	122	107	91.9
HPLM + 10% dialyzed FBS, 0.19 µM	129	110	114
HPLM + 10% dialyzed FBS, 0.569 µM	105	70.9	7.98
HPLM + 10% dialyzed FBS, 1.71 µM	107	101	67.2
HPLM + 10% dialyzed FBS, 5.12 µM	102	73.1	112
HPLM + 10% dialyzed FBS, 15.4 µM	58.2	30.5	63.3
HPLM + 10% dialyzed FBS, 46.1 µM	29.1	12.2	64.9
RPMI 5 mM glucose + 10% FBS, 0.000781 µM	109	104	90
RPMI 5 mM glucose + 10% FBS, 0.00234 µM	101	111	95
RPMI 5 mM glucose + 10% FBS, 0.00702 µM	108	114	97.8
RPMI 5 mM glucose + 10% FBS, 0.0211 µM	116	105	107
RPMI 5 mM glucose + 10% FBS, 0.0632 µM	117	108	106
RPMI 5 mM glucose + 10% FBS, 0.19 µM	123	109	117
RPMI 5 mM glucose + 10% FBS, 0.569 µM	113	82.4	6.64
RPMI 5 mM glucose + 10% FBS, 1.71 µM	109	105	54.8
RPMI 5 mM glucose + 10% FBS, 5.12 µM	123	70.2	93.2
RPMI 5 mM glucose + 10% FBS, 15.4 µM	43.9	42	54.9
RPMI 5 mM glucose + 10% FBS, 46.1 µM	21.2	10.4	56.6
RPMI 5 mM glucose + 10% dialyzed FBS, 0.000781 µM	87.5	96.9	98.4
RPMI 5 mM glucose + 10% dialyzed FBS, 0.00234 µM	103	97.7	86.6
RPMI 5 mM glucose + 10% dialyzed FBS, 0.00702 µM	100	99.5	112
RPMI 5 mM glucose + 10% dialyzed FBS, 0.0211 µM	100	112	107
RPMI 5 mM glucose + 10% dialyzed FBS, 0.0632 µM	113	105	123
RPMI 5 mM glucose + 10% dialyzed FBS, 0.19 µM	99.2	106	109
RPMI 5 mM glucose + 10% dialyzed FBS, 0.569 µM	116	85.7	8.39
RPMI 5 mM glucose + 10% dialyzed FBS, 1.71 µM	94.6	106	51.8
RPMI 5 mM glucose + 10% dialyzed FBS, 5.12 µM	99.6	81.9	96.6
RPMI 5 mM glucose + 10% dialyzed FBS, 15.4 µM	108	60.1	59.8
RPMI 5 mM glucose + 10% dialyzed FBS, 46.1 µM	35.3	12.4	74.5

AUC of viability dose-response curve
Conditions	HPLM + 10% dialyzed FBS	RPMI 5 mM glucose + 10% FBS	RPMI 5 mM glucose + 10% dialyzed FBS
[4]	422	428	461
[5]	397	400	425

Cn1c(=O)n(-c2ccc(C(C)(C)C#N)cc2)c2c3cc(-c4cnc5ccccc5c4)ccc3ncc21
cell viability [%]
Conditions	[1]	[2]	[3]
HPLM + 10% dialyzed FBS, 0.000781 µM	99.4	108	94
HPLM + 10% dialyzed FBS, 0.00234 µM	99.2	120	104
HPLM + 10% dialyzed FBS, 0.00702 µM	105	113	96
HPLM + 10% dialyzed FBS, 0.0211 µM	97.5	105	86.7
HPLM + 10% dialyzed FBS, 0.0632 µM	91.2	110	82
HPLM + 10% dialyzed FBS, 0.19 µM	89.2	98	66.3
HPLM + 10% dialyzed FBS, 0.569 µM	61.1	92.1	50.5
HPLM + 10% dialyzed FBS, 1.71 µM	37.4	43.2	38.8
HPLM + 10% dialyzed FBS, 5.12 µM	41.9	18.2	28.3
HPLM + 10% dialyzed FBS, 15.4 µM	33.9	13.3	22.1
HPLM + 10% dialyzed FBS, 46.1 µM	32.2	17.6	22.3
RPMI 5 mM glucose + 10% FBS, 0.000781 µM	103	114	68
RPMI 5 mM glucose + 10% FBS, 0.00234 µM	114	108	56.2
RPMI 5 mM glucose + 10% FBS, 0.00702 µM	104	106	64.5
RPMI 5 mM glucose + 10% FBS, 0.0211 µM	102	90.6	64.3
RPMI 5 mM glucose + 10% FBS, 0.0632 µM	106	88.2	46
RPMI 5 mM glucose + 10% FBS, 0.19 µM	99.9	82.7	33.6
RPMI 5 mM glucose + 10% FBS, 0.569 µM	89.8	67.6	27.7
RPMI 5 mM glucose + 10% FBS, 1.71 µM	52.4	67.2	15
RPMI 5 mM glucose + 10% FBS, 5.12 µM	28.7	42.1	8.98
RPMI 5 mM glucose + 10% FBS, 15.4 µM	19.8	10.7	9.61
RPMI 5 mM glucose + 10% FBS, 46.1 µM	27.1	12.1	6.98
RPMI 5 mM glucose + 10% dialyzed FBS, 0.000781 µM	102	110	98.6
RPMI 5 mM glucose + 10% dialyzed FBS, 0.00234 µM	120	117	89
RPMI 5 mM glucose + 10% dialyzed FBS, 0.00702 µM	111	111	89.8
RPMI 5 mM glucose + 10% dialyzed FBS, 0.0211 µM	112	105	86.1
RPMI 5 mM glucose + 10% dialyzed FBS, 0.0632 µM	94.9	101	65.7
RPMI 5 mM glucose + 10% dialyzed FBS, 0.19 µM	73.4	82	57.9
RPMI 5 mM glucose + 10% dialyzed FBS, 0.569 µM	66.4	81.1	51.4
RPMI 5 mM glucose + 10% dialyzed FBS, 1.71 µM	49.3	57	35
RPMI 5 mM glucose + 10% dialyzed FBS, 5.12 µM	33.7	33.4	24.2
RPMI 5 mM glucose + 10% dialyzed FBS, 15.4 µM	22.6	15.3	13.2
RPMI 5 mM glucose + 10% dialyzed FBS, 46.1 µM	30.5	16.1	14.4

AUC of viability dose-response curve
Conditions	HPLM + 10% dialyzed FBS	RPMI 5 mM glucose + 10% FBS	RPMI 5 mM glucose + 10% dialyzed FBS
[4]	344	354	315
[5]	337	315	325
